According to patent publication US8304418B2, “Pyrazolopyrimidinone kinase inhibitor” (Agennix AG, priority 2007, dated 2012):
Several values for one entry are separate records, joined by “and”; a condition that tells them apart may be missing. Equal values may be shown once. Read-outs that look alike come from different tables or passages of the source.

Columns and labels:
[1] = test system: CDK1-dependent Eg-5 phosphorylation on threonine 927; assay: In-cell Eg-5 phosphorylation (immunoblot); format: cell-based, human; conditions: Homo sapiens, 1 h
Source text: This set of assays represents CDKs involved in cell cycle progression (CDK1, 4/6), and the “regulatory CDK” (CDK9) which is involved in transcriptional regulation.
The following cancer cell lines were investigated in the course of these studies: A2780 (ovarian), HCT116 (colon), RPMI8226 (myeloma), SKMel28 (melanoma), Colo205 (colorectal), MDA-MB-435 (melanoma), MDA-MB-453 (breast, carcinoma), MDA-MB-468 (breast, adenocarcinoma), A549 (lung), Raji (lymphoma, Burkitt). Cell lines were obtained from public repositories.
CDK1-dependent Eg-5 phosphorylation on threonine 927 (Thr927phos). Thr927phos was investigated by arresting cells over night in G2/M phase with 25 ng/ml nocodazole (optimized final concentration) followed by treatment with DMSO as control or an appropriate concentration of test compound for 1 hour. Detached as well as adherent cells were collected and lysed with CLB-1 lysis buffer. the lysate cleared by centrifugation and subjected to SDS-PAGE. The proteins were blotted on PVDF membranes and subsequently analyzed by antibodies against total Eg-5 (Becton Dickinson) and Eg-5 Thr927phos (Bio legend). Visualization and estimation of IC50 was conducted as above.

MDA-MB-468 = assay: Cell proliferation, MDA-MB-468; format: cell-based; conditions: Homo sapiens
Procedure: The assays used for determining the properties of the kinase inhibitors were performed in accordance with standard procedures well known to those skilled in the art. For example, assays for determining inhibitory activity on CDKs or in cellular assays are described in WO 00/218962, WO 2005/026129, and WO 2005/063765. Solubility assays at pH 7.4 were essentially performed as described by Avdeef, A. in Pharmacokinetic Optimization in Drug Research; Testa, B.; van de Waterbeemd, H.; Folkers, G.; Guy, R. Eds.; Wiley-VHC: Zurich, 2001; pp 305-326. PAMPA permeability assays at pH 7.4 were essentially performed as described in Kansy et al., J. Med. Chem. 41: 1007-10, 1998.
When compared to IC50s of cellular proliferation by compound I, (as determined by the methods described earlier), the corresponding IC50 for cellular inhibition of CDK9-dependent RNAPII phosphorylation is approximately similar.

[2] = test system: human A2780 ovarian tumor cells
Procedure: (§1) Xenograft Tumor-Models: 100 athymic nu/nu female mice (6-8 weeks old) from CRL were allowed to acclimate for 4 days. […] The 3rd passage of cells with approximate 90% confluence was used for these experiments. Briefly, on Day 0, mice were inoculated with 0.1 ml (total 5×10^6 cells) of the respective cell-type as a cell suspension (50×10^6 cells/ml) by subcutaneous injection into the fat pad area near the mammary gland under light anesthesia. When the average tumor weight in all mice reached over 100 mg (day 10), 80 animals with an average tumor size of 130 mg were selected and were randomly divided into 8 groups.
(§2) A 20 G gavage needle was used for the oral treatment.
(§3) Tumor growth and body weight were monitored and recorded three times a week. Tumors were measured by determining the length and width of the tumor with a digital caliper. Tumor weight was estimated using the following formula: Tumor Weight (mg)=(w^2×1)×0.52 where w=width and l=length in mm of the tumor.
(§4) Experimental treatment may cause partial regression (PR) or complete regression (CR) of tumors. PR is defined when the tumor size is 50% or less than the starting (day 1) size but greater than 0.0 mg for three consecutive measurements during the course of the study. CR occurs when there is no measurable tumor mass for three consecutive measurements. Cures are defined when CR are maintained until the completion of the experiment.
(§5) Mice were sacrificed when their tumors reached the 1000 mm^3 endpoint volume. Treatment efficacy was determined as Log Cell Kill (LCK).
(§6) Toxic deaths are defined as deaths caused by compound treatment and not by advanced disease state. […] Non-tumor related deaths after this point are recorded, but not considered toxic deaths.
(§7) Briefly, the empirical distributions of T and Td were derived from B=1000 realisations of random selection of n individual animals with replacement from the set i=1, . . . , n of the appropriate group of mice containing n evaluable animals, estimating the mean tumor size for such selection of animals for each time-point, and linear regression analysis from a semi-log plot of such averages against time. Dead mice and mice with no measurable tumor size were treated as missing data and were ignored when calculating the average.

[3] = test system: HCT116 colon carcinoma cells
Procedure: as §1, §2, §3, §4, §5, §6, §7

CC(C)c1nn(-c2c(Cl)cncc2Cl)c2nc(Cc3ccc(CN4CCCC4)c(O)c3)[nH]c(=O)c12 [Compound I, 1-(3,5-dichloropyridin-4-yl)-6-(3-hydroxy-4-pyrrolidinomethyl-phenyl)methyl-3-isopropyl-pyrazolo[3,4-d]pyrimidin-4-one]
IC50 ([1]; COLO 205, Colo205 cells): ~1 µM | IC50 ([1]; HCT-116, HCT116 cells): ~3 µM | IC50 ([1]; RPMI-8226, RPMI8226 cells): > 1 µM | IC50 ([1]; A549 cells): > 1 µM | IC50 ([1]; A2780 cells): ~1 µM | IC50 ([1]; MDA-MB-435 cells): ~0.5 µM | IC50 ([1]; MDA-MB-453 cells): ~1 µM | IC50 ([1]; Raji cells): > 1 µM | IC50 (MDA-MB-468): ~0.3 µM | LCK ± CI (95%) (Td: 1.7 d) ([2]; 32 [30] mg/kg po qdx10): 0.44 ± 0.24 and 0.44 | Toxic Mortality ([2]; 32 [30] mg/kg po qdx10, N=10): 0 | Max % TGI (d) ([2]; 32 [30] mg/kg po qdx10, day 11): 52.2 (11) % | LCK ± CI (95%) (Td: 1.7 d) ([2]; 63 [59] mg/kg po qdx10): 0.93 ± 0.39 and 0.93 | Toxic Mortality ([2]; 63 [59] mg/kg po qdx10, N=10): 0 | Max % TGI (d) ([2]; 63 [59] mg/kg po qdx10, day 11): 67.3 (11) % | LCK ± CI (95%) (Td: 1.7 d) ([2]; 95 [89] mg/kg po qdx7): 2.16 ± 0.44 and 2.16 | Toxic Mortality ([2]; 95 [89] mg/kg po qdx7): 1/10 | Max % TGI (d) ([2]; 95 [89] mg/kg po qdx7, day 11): 86.2 (11) % | LCK ± CI (95%) (Td: 6.8 d) ([3]; HCT116, 31.6 [29.5] mg/kg po qdx10): 0.21 ± 0.08 and 0.21 | Max % TGI (d) ([3]; HCT116, 31.6 [29.5] mg/kg po qdx10, day 32): 32.7 (32) % | LCK ± CI (95%) (Td: 6.8 d) ([3]; HCT116, 63.3 [59.1] mg/kg po qdx10): 0.51 ± 0.17 and 0.51 | Max % BW Loss (d) ([3]; HCT116, 63.3 [59.1] mg/kg po qdx10, day 16): 3.2 (16) % | Max % TGI (d) ([3]; HCT116, 63.3 [59.1] mg/kg po qdx10, day 32): 58.5 (32) % | LCK ± CI (95%) (Td: 6.8 d) ([3]; HCT116, 95 [89] mg/kg po qdx10): 0.60 ± 0.17 and 0.60 | Toxic Mortality ([3]; HCT116, 95 [89] mg/kg po qdx10): 1/10 | Max % TGI (d) ([3]; HCT116, 95 [89] mg/kg po qdx10, day 20): 68.4 (20) % | Max % BW Loss (d) ([3]; mouse, in vivo, po): 10.2 (16) %
